Measurements taken from US20150374705A1, “Substances for treatment or relief of pain” (Shanghai Institues for Biological Sciences, priority 2012, published 2015).

System: brain microvessel endothelial cells co-cultivated with astrocyte
Assay: In vitro blood-brain barrier model (BBBM)
Type: in vitro ADME
Text: Through in vitro blood-brain barrier model (BBBM), whether the substance to be measured could effectively pass blood brain barrier was detected. In this experiment, brain microvessl endothelial cells were co-cultivated with astrocyte, and then whether the substance to be measured could effectively pass cellular membrane was detected. For detailed method, please refer to related literature (Culot M et al., An in vitro blood-brain barrier model for high throughput (HTS) toxicological screening. Toxicol In Vitro. 2008 April; 22(3):799-811).

Cn1ncnc1COc1nn2c(-c3cc(CO)on3)nncc2c1C(C)(C)C [MRK016-M3, (3-(3-tert-butyl-2-((2-methyl-2H-1,2,4-triazol-3-yl)methoxy)pyrazolo [1,5-d][1,2,4]triazin-7-yl)isoxazol-5-yl)methanol]
Passing blood brain barrier: cannot significantly pass blood brain barrier
